From ChEMBL document CHEMBL1132475, “Synthesis and in vitro anti-HIV activity in human monocyte-derived macrophages of 2-oxothiazolidine-4(R)-carboxylic acid derivatives” (1999)

organism: Homo sapiens; assay: The compound was tested for antiviral activity against HIV-1/Ba-L-infected monocyte-derived macrophages in human at a concentration of 0.5 mM; type: functional; conditions: at 0.5 mM

| SMILES | Untreated control [%] |
| --- | --- |
| O=C1N[C@H](C(=O)OCC(=O)c2ccccc2)CS1 | 69 |
| O=C1N[C@H](C(=O)O)CS1 [PROCYSTEINE] | 81 |

organism: Homo sapiens; assay: The compound was tested for antiviral activity against HIV-1/Ba-L-infected monocyte-derived macrophages in human at a concentration of 2 mM; type: functional; conditions: not given

| SMILES | Percent of untreated control |
| --- | --- |
| CC(=O)N1C(=O)SC[C@H]1C(=O)O | 34% |
| CCOC(=O)[C@@H]1CSC(=O)N1C(=O)CC[C@H](N)C(=O)O.Cl | 37% |
| Cl.N[C@@H](CCC(=O)N1C(=O)SC[C@H]1C(=O)NCC(=O)O)C(=O)O | 159% |
| Cl.N[C@@H](CCC(=O)N1C(=O)SC[C@H]1C(=O)O)C(=O)O | 83% |
| CC(C)(C)OC(=O)CNC(=O)[C@@H]1CSC(=O)N1 | 104% |
| O=C(O)CNC(=O)[C@@H]1CSC(=O)N1 | 45% |
| CCOC(=O)[C@@H]1CSC(=O)N1 | 86% |
| CC(C)(C)OC(=O)N[C@@H](CCC(=O)N1C(=O)SC[C@H]1C(=O)O)C(=O)OC(C)(C)C | 102% |
| CC(=O)N[C@@H](CS)C(=O)O [ACETYLCYSTEINE] | 88% |
| O=C1N[C@H](C(=O)O)CS1 [PROCYSTEINE] | 37 |
